How the values were obtained:
HCT116 cells [1] = assay: SRB antiproliferative assay, HCT116 (wt p53); assay type: cell-based; conditions: Homo sapiens, HCT-116, 48 h of treatment, mean ± SEM
Description: (§1) Human colorectal adenocarcinoma HCT116 cell lines expressing p53 and its p53-null isogenic derivative (HCT116 p53^−/−) were provided by B. Vogelstein (The Johns Hopkins Kimmel Cancer Center, Baltimore, MD, USA). Human colorectal adenocarcinoma SW837, HT29, pancreatic carcinoma PANC-1, breast adenocarcinoma MCF-7, hepatocarcinoma HEPG2, melanoma A375, normal human foreskin fibroblasts HFF-1, and normal human colon CCD-18Co cell lines were purchased from ATCC (Rockville, MD, USA). The cancer cell lines were routinely cultured with RPMI-1640 medium from Biowest (HCT116, HCT116 p53^−/−, SW837, HT29, A375, MCF-7, HEPG-2, and […]) or DMEM with 5% glucose (HFF-1) and supplemented with 10% fetal bovine serum from Gibco (Alfagene, Lisboa, Portugal). All cells were maintained in a humidified incubator at 37 °C and 5% CO2.
(§2) Human cell lines were seeded in 96-well plates at a density of 5.0 × 10^3 (HCT116 p53 ^−/−, HCT116 wt, HT29, SW837, CCD-18Co, HFF-1, and MCF-7 cell lines) or 4.5 × 10^3 (A375, HEPG2 and PANC-1 cell lines) cells per well, for 24 h. Cells were treated with the appropriate compound, with serial dilutions ranging from 0.2 to 50 µM, for 48 h. Following the incubation, the effects on cell proliferation were evaluated through the SRB assay as stated by Ramos et al.. The IC50 values were determined using the software GraphPad Prism version 9.0.

HCT116 p53−/− cells = assay: SRB antiproliferative assay, HCT116 p53−/−; assay type: cell-based; conditions: Homo sapiens, HCT-116, 48 h of treatment, p53 knockout, mean ± SEM
Description: as §1, §2

SW837 cells = assay: SRB antiproliferative assay, SW837; assay type: cell-based; conditions: Homo sapiens, 48 h of treatment, mean ± SEM
Description: as §1, §2

CCD-18Co cells = assay: SRB cytotoxicity assay, normal colon CCD-18Co; assay type: cell-based; conditions: 48 h of treatment, normal human colon cell line, mean ± SEM
Description: as §1, §2

HT29 cells = assay: SRB antiproliferative assay, HT29; assay type: cell-based; conditions: Homo sapiens, HT-29, 48 h of treatment, mean ± SEM
Description: as §1, §2

[2] = test system: ovarian carcinoma (OVCAR-3); parameters: method as in PMID 31247374; conditions: cited from earlier work
leukemia (K-562) = test system: leukemia (K-562); parameters: method as in PMID 31247374; conditions: cited from earlier work
[3] = test system: renal adenocarcinoma (786-0); parameters: method as in PMID 31247374; conditions: cited from earlier work
[4] = test system: breast adenocarcinoma (MCF-7); parameters: method as in PMID 31247374; conditions: cited from earlier work
PANC-1 cells = assay: SRB antiproliferative assay, PANC-1; assay type: cell-based, human; conditions: 48 h of treatment, mean ± SEM
Description: as §1, §2

HEPG2 cells = assay: SRB antiproliferative assay, HEPG2; assay type: cell-based, human; conditions: 48 h of treatment, mean ± SEM
Description: as §1, §2

HCT116 cells [5] = assay: Annexin-V apoptosis assay, HCT116; assay type: cell-based, human; conditions: HCT116, 4.5 and 9.0 μM, 48 h, flow cytometry PI/Annexin-V
Description: The analysis of apoptotic cell death was performed essentially as described by Ramos et al.. Briefly, 1.5 × 10^5 HCT116 cells/well were seeded in 6-well plates, allowed to adhere overnight, and then treated with 4.5 and 9.0 μM of compound 1a. After 48 h of treatment, cells were stained using the Annexin V-FITC Apoptosis Detection Kit I from BD Biosciences (Enzifarma, Porto, Portugal), according to the manufacturer’s instructions. The AccuriTM C6 flow cytometer and the BD Accuri C6 software (BD Biosciences) were used.

MCF-7 cells = assay: SRB antiproliferative assay, MCF-7; assay type: cell-based, human; conditions: 48 h of treatment, mean ± SEM
Description: as §1, §2

HFF-1 cells = assay: SRB assay, normal foreskin fibroblasts HFF-1; assay type: cell-based; conditions: 48 h of treatment, normal human foreskin fibroblasts, mean ± SEM
Description: as §1, §2

A375 cells = assay: SRB antiproliferative assay, A375; assay type: cell-based, human; conditions: 48 h of treatment, mean ± SEM
Description: as §1, §2

Structure (SMILES): Clc1ccc(-n2cc(-c3cc4c([nH]c5ccccc54)c(-c4ccccc4)n3)nn2)cc1 [13a, 3-(1-(p-Chlorophenyl)-1H-1,2,3-triazol-4-yl)-1-phenyl-β-carboline]
- IC50 (HCT116 cells [1]): 39 ± 2.16 µM
- IC50 (HCT116 p53−/− cells): 43 ± 0.82 µM
- melting point: 207.5 to 207.9 °C
- IC50 (SW837 cells): > 50 µM
- IC50 (CCD-18Co cells): > 50 µM
- IC50 (HT29 cells): > 50 µM

Structure (SMILES): COc1ccc(-c2nc(-c3nnnn3Cc3ccccc3)cc3c2[nH]c2ccccc23)cc1 [1b]
- IC50 (HCT116 cells [1]): 4.3 ± 0.08 µM
- IC50 (HCT116 p53−/− cells): 4.2 ± 0.31 µM
- IC50 (SW837 cells): 25 ± 1.63 µM
- IC50 (CCD-18Co cells): 3.4 ± 0.29 µM
- IC50 (HT29 cells): 5.9 ± 1.19 µM

Structure (SMILES): COC(=O)c1cc2c([nH]c3ccccc32)c(-c2ccc(OC)cc2)n1 [14b]
- IC50 (HCT116 cells [1]): > 50 µM
- IC50 (HCT116 p53−/− cells): > 50 µM

Structure (SMILES): COC(=O)c1cc2c([nH]c3ccccc32)c(-c2cccc([N+](=O)[O-])c2)n1 [14d]
- IC50 (HCT116 cells [1]): > 50 µM
- IC50 (HCT116 p53−/− cells): > 50 µM

Structure (SMILES): Fc1ccc(-c2nc(-c3nnnn3Cc3ccccc3)cc3c2[nH]c2ccccc23)cc1 [1c]
- IC50 (HCT116 cells [1]): 3.4 ± 0.16 µM
- IC50 (HCT116 p53−/− cells): 3.3 ± 0.73 µM
- IC50 [2]: < 1 µM
- IC50 (leukemia (K-562)): < 1 µM
- IC50 (SW837 cells): 29 ± 3.74 µM
- IC50 [3]: < 1 µM
- IC50 (CCD-18Co cells): 7.5 ± 0.16 µM
- IC50 [4]: < 1 µM
- IC50 (HT29 cells): 9.6 ± 1.18 µM

Structure (SMILES): COC(=O)c1cc2c([nH]c3ccccc32)c(-c2ccccc2)n1 [14a]
- IC50 (HCT116 cells [1]): > 50 µM
- IC50 (HCT116 p53−/− cells): > 50 µM

Structure (SMILES): c1ccc(Cn2nnnc2-c2cc3c([nH]c4ccccc43)c(-c3ccccc3)n2)cc1 [1a]
- IC50 (HCT116 cells [1]): 4.5 ± 0.05 µM
- IC50 (HCT116 p53−/− cells): 4.6 ± 0.43 µM
- IC50 (PANC-1 cells; listed as C00001): 4 ± 0.4 µM
- IC50 (PANC-1 cells; Homo sapiens, PANC-1, 48 h): < 8 µM
- IC50 (HEPG2 cells; listed as C00001): 7.5 ± 1.27 µM
- IC50 (HEPG2 cells; Homo sapiens, HepG2, 48 h): < 8 µM
- Apoptotic cell death (Annexin-positive cells) (HCT116 cells [5]): associated with apoptotic cell death
- IC50 (MCF-7 cells; listed as C00001): 7.7 ± 0.7 µM
- IC50 (MCF-7 cells; Homo sapiens, MCF7, 48 h): < 8 µM
- IC50 (HFF-1 cells): 29 ± 1.5 µM
- IC50 (SW837 cells): 44 ± 0.82 µM
- IC50 (CCD-18Co cells): 26 ± 0.82 µM
- IC50 [4]: 4.4 µM
- IC50 (HT29 cells): 9 ± 0.55 µM
- IC50 (A375 cells; listed as C00001): 5.6 ± 0.2 µM
- IC50 (A375 cells; Homo sapiens, A-375, 48 h): < 8 µM

Structure (SMILES): COc1ccc(-c2nc(-c3cn(-c4ccc(Cl)cc4)nn3)cc3c2[nH]c2ccccc23)cc1 [13c, 3-(1-(p-Chlorophenyl)-1H-1,2,3-triazol-4-yl)-1-(p-methoxyphenyl)-β-carboline]
- IC50 (HCT116 cells [1]): 32 ± 2.45 µM
- IC50 (HCT116 p53−/− cells): > 50 µM
- melting point: 219.7 to 221.3 °C
- IC50 (SW837 cells): > 50 µM
- IC50 (CCD-18Co cells): > 50 µM
- IC50 (HT29 cells): > 50 µM

Structure (SMILES): Fc1ccc(-c2nc(-c3cn(-c4ccc(Cl)cc4)nn3)cc3c2[nH]c2ccccc23)cc1 [13b, 3-(1-(p-Chlorophenyl)-1H-1,2,3-triazol-4-yl)-1-(p-fluorophenyl)-β-carboline]
- IC50 (HCT116 cells [1]): > 50 µM
- IC50 (HCT116 p53−/− cells): > 50 µM
- melting point: 237.3 to 238.1 °C
- IC50 (SW837 cells): > 50 µM
- IC50 (CCD-18Co cells): > 50 µM
- IC50 (HT29 cells): > 50 µM

Structure (SMILES): O=[N+]([O-])c1cccc(-c2nc(-c3cn(-c4ccc(Cl)cc4)nn3)cc3c2[nH]c2ccccc23)c1 [13e, 3-(1-(p-Chlorophenyl)-1H-1,2,3-triazol-4-yl)-1-(m-nitrophenyl)-β-carboline]
- IC50 (HCT116 cells [1]): > 50 µM
- IC50 (HCT116 p53−/− cells): > 50 µM
- melting point: 237.3 to 239.1 °C
- IC50 (SW837 cells): > 50 µM
- IC50 (CCD-18Co cells): > 50 µM
- IC50 (HT29 cells): > 50 µM

Structure (SMILES): COC(=O)c1cc2c([nH]c3ccccc32)c(-c2ccc(N(C)C)cc2)n1 [14c]
- IC50 (HCT116 cells [1]): 15 ± 1.41 µM
- IC50 (HCT116 p53−/− cells): 18 ± 0.47 µM

Structure (SMILES): Clc1ccc(-n2cc(-c3cc4c([nH]c5ccccc54)c(-c4ccccc4Cl)n3)nn2)cc1 [13f, 3-(1-(p-Chlorophenyl)-1H-1,2,3-triazol-4-yl)-1-(o-chlorophenyl)-β-carboline]
- IC50 (HCT116 cells [1]): > 50 µM
- IC50 (HCT116 p53−/− cells): > 50 µM
- melting point: 219.7 to 221.3 °C
- IC50 (SW837 cells): > 50 µM
- IC50 (CCD-18Co cells): > 50 µM
- IC50 (HT29 cells): > 50 µM

Structure (SMILES): COC(=O)c1cc2c([nH]c3ccccc32)c(-c2ccccc2Cl)n1 [14e]
- IC50 (HCT116 cells [1]): > 50 µM
- IC50 (HCT116 p53−/− cells): > 50 µM

Structure (SMILES): Fc1ccc(-c2nc(-c3nnn[nH]3)cc3c2[nH]c2ccccc23)cc1 [1d]
- IC50 [2]: 0.27 µM

Structure (SMILES): COc1cc([C@@H]2c3cc4c(cc3[C@@H](O[C@@H]3O[C@@H]5CO[C@@H](C)O[C@H]5[C@H](O)[C@H]3O)[C@H]3COC(=O)[C@H]23)OCO4)cc(OC)c1O [Etoposide, reference compound]
- IC50 (HCT116 cells [1]): 0.6 ± 0.05 µM
- IC50 (HCT116 p53−/− cells): 0.9 ± 0.07 µM
- IC50 (PANC-1 cells; Homo sapiens, PANC-1, 48 h): 3.1 ± 0.05 µM
- IC50 (HEPG2 cells; Homo sapiens, HepG2, 48 h): 1.7 ± 0.2 µM
- IC50 (MCF-7 cells; Homo sapiens, MCF7, 48 h): 2.1 ± 0.03 µM
- IC50 (HFF-1 cells): 1.1 ± 0.01 µM
- IC50 (SW837 cells): 0.9 ± 0.07 µM
- IC50 (CCD-18Co cells): 0.5 ± 0.07 µM
- IC50 (HT29 cells): 0.7 ± 0.1 µM
- IC50 (A375 cells; Homo sapiens, A-375, 48 h): 0.9 ± 0.07 µM

Structure (SMILES): CN(C)c1ccc(-c2nc(-c3cn(-c4ccc(Cl)cc4)nn3)cc3c2[nH]c2ccccc23)cc1 [13d, 3-(1-(p-Chlorophenyl)-1H-1,2,3-triazol-4-yl)-1-(p-dimethylaminophenyl)-β-carboline]
- IC50 (HCT116 cells [1]): > 50 µM
- IC50 (HCT116 p53−/− cells): > 50 µM
- melting point: 244.2 to 245.6 °C
- IC50 (SW837 cells): > 50 µM
- IC50 (CCD-18Co cells): > 50 µM
- IC50 (HT29 cells): > 50 µM

Source: article PMC9785278, “3-(1,2,3-Triazol-4-yl)-β-Carbolines and 3-(1H-Tetrazol-5-yl)-β-Carbolines: Synthesis and Evaluation as Anticancer Agents” (Pharmaceuticals, 2022)
